# Source: a melting point compilation (Tetko et al.; mined from patent text by program, amines drawn as free bases though some values may be those of a salt)
row,Compound,melting point [°C]
1,COc1cc2c(cc1OC)-c1cc(Nc3ccc(C)cc3C)nc(=O)n1CC2,239 to 241
2,CC[C@H](C)[C@H](NS(=O)(=O)c1ccc(C)cc1)C(=O)N[C@H](CO)Cc1c[nH]c2ccccc12,217 to 219
3,COc1cc2cc3c(=O)c(C#N)c[nH]c3nc2cc1OC,> 300
4,Cc1nn(-c2c(Cl)cc(S(=O)(=O)C(F)(F)F)cc2Cl)nc1-c1nc(C#N)c(C#N)[nH]1,244 to 245
5,NS(=O)(=O)c1ccc(C2(c3nc4c(F)cccc4s3)C=C(C(F)F)NN2)cc1 (stereo unspecified),243 to 245
6,COc1nc2cc(F)cc(CN=[N+]=[N-])c2nc1OC,75 to 78
7,Cn1c(=O)c2c(nc(/C=C/c3ccc4c(c3)OCO4)n2C)n(C)c1=O,> 300
8,COc1ccc(-c2cc(C)c3nc(OC)ccc3c2)cc1,104 to 106
9,CC1N=C(N(C)N)NN=C1c1ccccc1 (stereo unspecified),140 to 141
10,CN(C)CCc1[nH]c2ccccc2c1CSc1nccn1C,152 to 154
11,CC12CCC3c4ccc(N)cc4CCC3C1CCC2O (stereo unspecified),75 to 77
12,Nc1ccc(Cl)c(C(=O)NCCC23CC4CC(CC(C4)C2)C3)c1,147 to 149
13,Cc1ccc(S(=O)(=O)NC(Cc2ccccc2)C(=O)O)cc1 (stereo unspecified),134 to 135
14,CCC12CCC3C4CCC(=O)C=C4CCC3C1CCC2OC(=O)CCC1CCCC1 (stereo unspecified),88 to 89
15,"COCN1C(C)=C(C(=O)O)C(c2cccc(Cl)c2Cl)C(C(=O)OCOC(=O)C(C)(C)C)=C1C (single isomer, unassigned; (+))",89 to 90
16,O=C(O)c1ccc(-c2nn(Cc3ccccc3)c3ccccc23)cc1,205 to 207
17,COc1ccc(-c2nc(/C=C/c3nccn3C)nc3cc(OC)c(OC)cc23)cc1OC,180 to 181
18,CCS(=O)(=O)N1CCC(NC(=O)Nc2ccc(OC(F)(F)F)cc2)CC1,235 to 239
19,CC(=O)N1CCc2cc([N+](=O)[O-])cc(C#N)c21,245 to 255
20,Cc1ccc2nc(NC3=NCCN3)[nH]c2c1C,199 to 204
21,Cc1ccc2[nH]c3c(c2c1)C(=O)CCC3,> 255
22,O=C1COC2(CCN(CCCC(=O)c3ccc(F)cc3)CC2)CN1,117 to 118
23,CC(Oc1ccc(Oc2ccc(C#N)cc2)cc1)C(=O)Nc1ccccc1 (stereo unspecified),133 to 134

row,Compound,melting point [°C]
1,N#CCCOc1ccc(OCCC#N)cc1,138 to 140
2,CN(C)c1cccc2c(S(=O)(=O)Nc3ccc4nonc4c3)cccc12,106
3,C=CCNC(=S)N1CCc2[nH]cnc2C1,172
4,NC(=O)NC1CCN2CCc3ccccc3C2C1 (stereo unspecified),235
5,CCOC(=O)c1sc(Cl)nc1-c1ccccc1,56 to 57
6,CC(=O)Oc1cc(N2C(=O)CC(SC3CCCCC3)C2=O)ccc1C(=O)O (stereo unspecified),155 to 158
7,O=C(NCc1ccc(Cl)cc1)c1cnc2c(F)cc(/C=C\CO)cc2c1O,234 to 235
8,Cn1cc2c(n1)Nc1ccc(Cl)cc1NC2=O,> 260
9,CC(Oc1ccc(Oc2cnc3ccccc3n2)cc1)C(=O)O (stereo unspecified),137 to 141
10,O=CC(=Cc1ccccc1)C(C=O)=Cc1ccccc1,109 to 110
11,CC(=CCc1c(C)nc(N)nc1Cl)c1cc(Cl)ccc1Cl,97 to 100
12,CC(C#CCOc1ccccc1)N(O)C(N)=O (stereo unspecified),75 to 77
13,COC1(c2ccc(Sc3ccc(C(=O)c4c(F)c(F)c(F)c(F)c4F)cc3)s2)CCOCC1,93 to 94
14,Cc1nc2cccc(S(N)(=O)=O)c2s1,223 to 224
15,O=C(O)COCc1nn(-c2ccc(Cl)cc2)c2c1CCC2,122 to 123
16,CN1C(O)=C(C(=O)Nc2ccccc2Cl)c2ccsc2S1(=O)=O,168 to 170
17,CC1(C)Oc2ccc(OC(F)(F)F)cc2[C@@H](NC(=O)c2ccc(Cl)cc2[N+](=O)[O-])[C@@H]1O,64 to 66
18,CCCSc1ccc(C(=O)OC)nc1,33 to 35
19,O=C(c1c(F)cccc1F)N1COCN(c2ccc(SC(F)(F)C(F)(F)F)cc2F)C1=O,47 to 50
20,C#CCC(c1ccc(Cl)cc1Cl)C(O)(C(C)=O)c1cccnc1 (stereo unspecified),132
21,Cc1ccc(C23CCN(C)CC2O3)cc1 (stereo unspecified),46 to 50
22,COc1cc(OC)n2sc(=NS(=O)(=O)Cc3ccccc3OC(F)F)nc2n1,151 to 152
23,"CC1N=C(c2ccccc2Cl)c2cc([N+](=O)[O-])ccc2NC1=S (single isomer, unassigned; (+))",258 to 260

# The remaining lines, values ahead:
row,melting point [°C],Compound
1,132 to 135,CC(C)(C)C(=O)C(Cl)NC(=O)c1ccc(Cl)cc1 (stereo unspecified)
2,60,COC(=O)Cc1ccc(OCCNC(=O)C2Cc3ccccc3N2S(=O)(=O)c2ccc(-c3cccc(C(F)(F)F)c3)c(Cl)c2)cc1 (stereo unspecified)
3,> 300,Oc1nc2ccc3nonc3c2nc1O
4,137 to 139,Cc1ccc(S(=O)(=O)N(C(=O)OC(C)(C)C)[C@@H]2CCCC[C@H]2N)cc1
5,74 to 76,Cn1cccc1C(=O)CS(C)=O (stereo unspecified)
6,130 to 131,O=C(N[C@@H](CO)c1ccccc1)c1ccco1
7,117 to 119,CC(C)OC(=O)c1cc(NC(=O)c2ccccc2)c(F)cc1Cl
8,117 to 118,CCCCCCCCCCCCNC1=NC(N2CCOCC2)=NCN1
9,195 to 196,C[C@H](NC(=O)CCC(=O)NO)C(=O)N1CCC[C@H]1C(=O)O
10,120,Cc1ncc(CCC(=O)O)s1
11,243 to 245,O=C(NNC(=O)c1occ(-c2ccccc2)c1-c1ccccc1)c1ccc(O)c(F)c1
12,128 to 129,O=C(O)[C@H](Cc1ccc(C(F)(F)F)cc1)[C@@H](O)c1cccc(F)c1 (racemic)
13,136,O[C@@H]1CNCC[C@H]1NCc1ccccc1 (relative stereo)
14,68 to 71,CC(C)(C)OC(=O)N1Cc2ccccc2CN1
15,54 to 56,CC(C)OC(=O)CC1SCN(c2ccc(Cl)c(Cl)c2)C1=O (stereo unspecified)
16,185 to 188,CC(=NO)c1csc(S(N)(=O)=O)c1
17,213 to 214,CCCCCCCCCCCCOC(=O)CCC(=O)c1ccc(NCc2ccc3ccc4nc(C)[nH]c(=O)c4c3c2)cc1
18,150 to 153,CC(C)(C)OC(=O)[C@@H]1CCCN1C(=O)CNS(=O)(=O)c1cccc2cccnc12
19,206 to 210,Cc1cc(S(N)(=O)=O)ccc1N1CN(c2ccccc2)CC1=O
20,165 to 166,Cc1nc(-c2ccc(Cl)cc2)[nH]c1C(=O)N[C@H](C)[C@](O)(Cn1cncn1)c1ccc(F)cc1F
21,110 to 111,FC(F)C(F)(F)Oc1cccc(Nc2nccc(-c3ccsc3)n2)c1
22,87 to 89,O=C(Nc1ccccc1-c1ccccc1)OCCCC(=O)c1ccccc1
23,300,COC(=O)Nc1nc2cc(C(O)c3ccc(F)cc3)ccc2[nH]1 (stereo unspecified)
24,135 to 136,CC(C)(Oc1ccc(CCC(=O)c2ccc(-c3ccc(OC(F)(F)F)cc3)s2)c(Cl)c1Cl)C(=O)O
25,62,CCOC(=O)CC(=CNc1ncccc1C)C(=O)OCC
26,305 to 310,COc1cc2c(=O)c(C#N)c[nH]c2cc1NC(C)=O
27,236 to 237,CCOC(=O)Cn1c(=O)c(=O)[nH]c2cc(C(F)(F)F)c(-n3ccc(C=O)c3)cc21
28,192 to 193,Cc1ccc(CCOc2ccc(CC3SC(=O)NC3=O)cc2)nc1 (stereo unspecified)

row,melting point [°C],Compound
1,142 to 144,Brc1ccc(C2CC(n3ccnc3)c3ccccc3N2)cc1 (stereo unspecified)
2,145,O=Cc1ccccc1SSc1ccccc1C=O
3,198 to 200,CCCCc1nc2c(N)nc3ccccc3c2n1CCCC(=NOC)c1ccccc1
4,166 to 168,Cc1cc(CNC(=O)CCl)c(O)c2c1CCC2=O
5,146 to 147,CC(=O)Nc1ccc(C(C)=O)cn1
6,173 to 181,Cc1ccc(S(=O)(=O)Nc2ccccc2C(=O)NCCc2ncc[nH]2)cc1
7,92 to 93,CCOc1ccc(OCC)c(C[C@@H](C(=O)[C@H](Cc2cc(OCC)ccc2OCC)N2C(=O)c3ccccc3C2=O)N2C(=O)c3ccccc3C2=O)c1
8,138 to 140,CCOC(=O)NC(=O)C(C#N)=CNc1c(C)cccc1C
9,83 to 84,CCOC(=S)c1csc2nc(Cc3ccccc3)cn12
10,164 to 165,Cc1ccc(C#Cc2ccc(NC(=O)OC(C)(C)C)c([N+](=O)[O-])c2)cc1
11,223 to 226,COc1ccc2nc(NC(=O)C(CC3CCCC3)c3ccc(S(=O)(=O)Nc4ccccc4)cc3)sc2n1 (stereo unspecified)
12,212 to 213,COc1cc(OC)c2c(=O)[nH]c(-c3cc(C)c(OCCN4CCOCC4)c(C)c3)cc2n1
13,122 to 124,COC(=O)c1c[nH]c(Sc2ccc(Cl)cc2)c1
14,163 to 164,O=C1c2ccccc2C(=O)N1CC(Br)(c1ccccc1)C(F)Br (stereo unspecified)
15,122 to 124,S=C(NCCCCN(Cc1ccc(Br)cc1)c1ccccn1)NCCCn1ccnc1
16,196 to 198,COc1cc(-c2nc(-c3ccc(N(C)C)cc3)c(C)[nH]2)cc(OC)c1OP(=O)(O)O
17,197 to 199,O=C(O)COc1cccc2c1CCc1sc(S(=O)(=O)C(c3ccc(Cl)cc3)c3ccc(Cl)cc3)nc1-2
18,135,CC(=O)c1ccc(F)c(S(N)(=O)=O)c1
19,259 to 260,O=C1C(O)=C(c2ccccc2)C(=O)C(O)=C1/C=C/c1ccccc1
20,214 to 215,CCCCNC(=S)NC(Cc1ccccc1)C(=O)Nc1c(C(C)C)cccc1C(C)C (stereo unspecified)
21,118 to 119,O=[N+]([O-])c1cccc(Oc2cncc(Cl)n2)c1
22,69 to 71,CC1(C)CC(N(CCO)CC(O)COc2ccc(C(C)(C)c3ccc(OCC(O)CN(CCO)C4CC(C)(C)NC(C)(C)C4)cc3)cc2)CC(C)(C)N1 (stereo unspecified)
23,231 to 232,CC(C)n1nc(-c2sc(NC(=O)N3CCOCC3)nc2-c2ccccc2)ccc1=O
24,106 to 112,Cc1cc(F)ccc1-c1nc(NC(C)(C)CO)nc2c1ccc(=O)n2-c1ccccc1F
25,134 to 136,O=C(NCc1ccc(F)c(F)c1)c1ccnc(N2CCN(CC3CC3)C2=O)c1
26,90,OC(CCN1CCCC1)c1ccc(C2CCCCC2)c(Cl)c1 (stereo unspecified)
27,255,O=C(O)CSc1nc(=O)[nH]cc1F
